In ChEMBL document CHEMBL5096166, “Discovery of an Orally Efficacious Positive Allosteric Modulator of the Glucagon-like Peptide-1 Receptor” (J Med Chem, 2021):
pEC50: −log10 of the molar value. Calls of active or inactive are those of the source. The calls are words filed in the database; no cut-off is given here.

Tests used:
Mus musculus [1] = assay: Anti-hyperglycemic activity in overnight-fasted GIPR KO C57BL/6 mouse assessed as reduction in blood glucose AUC at 10 mg/kg, po pretreated with compound for 30 mins followed by dextrose addition measured every 15 mins for 60 mins by oral glucose tolerance test relative to control; assay type: functional; design: scale not given: the % may be the effect or the level left; details: time 90 min, 1.5 h
[2] = Clearance in CD1 mouse at 1 mg/kg, iv measured upto 8 hrs by LC-MS/MS analysis; assay type: ADME, organism-based; details: in vivo
[3] = target: T1, Glucagon-like peptide 1 receptor (Homo sapiens, UniProt P43220); assay: Positive allosteric modulator activity at human GLP-1R expressed in HEK293 cells assessed as fold increase in potentiation of GLP-1(9-36) induced cAMP accumulation in presence of IBMX relative to GLP-1(9-36); assay type: functional, cell-based
[4] = target: T1, Glucagon-like peptide 1 receptor; assay: Positive allosteric modulator activity at human GLP-1R expressed in HEK293 cells assessed as potentiation of GLP-1(9-36) induced cAMP accumulation by measuring maximal efficacy in presence of IBMX relative to GLP-1(9-36); assay type: functional, cell-based; details: filed as positive allosteric modulator
[5] = target: T1, Glucagon-like peptide 1 receptor; assay: Positive allosteric modulator activity at human GLP-1R expressed in HEK293 cells assessed as potentiation of EC20 GLP-1(9-36) induced cAMP accumulation in presence of IBMX relative to GLP-1(9-36); assay type: functional, cell-based
[6] = target: T1, Glucagon-like peptide 1 receptor; assay: Positive allosteric modulator activity at human GLP-1R expressed in HEK293 cells assessed as potentiation of EC20 GLP-1(9-36) induced cAMP accumulation by measuring maximal efficacy in presence of IBMX relative to GLP-1(9-36); assay type: functional, cell-based; details: filed as positive allosteric modulator
[7] = AUC in CD1 mouse at 1 mg/kg, iv measured upto 8 hrs by LC-MS/MS analysis; assay type: ADME, organism-based; design: time < 8 hrs, dose 1 mg/kg, route iv; details: in vivo
[8] = Cmax in CD1 mouse at 1 mg/kg, iv measured upto 8 hrs by LC-MS/MS analysis; assay type: ADME, organism-based; design: time < 8 hrs, dose 1 mg/kg, route iv; details: in vivo
[9] = Half life in CD1 mouse at 1 mg/kg, iv measured upto 8 hrs by LC-MS/MS analysis; assay type: ADME, organism-based; details: in vivo
[10] = Volume of distribution at steady state in CD1 mouse at 1 mg/kg, iv measured upto 8 hrs by LC-MS/MS analysis; assay type: ADME, organism-based; details: in vivo, read-out: Vdss
[11] = AUC in CD1 mouse at 3 mg/kg, po measured upto 16 hrs by LC-MS/MS analysis; assay type: ADME, organism-based; design: dose 3 mg/kg, time < 16 hrs, route po; details: in vivo
[12] = Cmax in CD1 mouse at 3 mg/kg, po measured upto 16 hrs by LC-MS/MS analysis; assay type: ADME, organism-based; design: dose 3 mg/kg, time < 16 hrs, route po; details: in vivo
[13] = Half life in CD1 mouse at 3 mg/kg, po measured upto 16 hrs by LC-MS/MS analysis; assay type: ADME, organism-based; details: in vivo
[14] = Tmax in CD1 mouse at 3 mg/kg, po measured upto 16 hrs by LC-MS/MS analysis; assay type: ADME, organism-based; details: in vivo
[15] = Oral bioavailability in CD1 mouse at 3 mg/kg measured upto 16 hrs by LC-MS/MS analysis; assay type: ADME, organism-based; details: in vivo
[16] = AUC in Sprague-Dawley rat at 1 mg/kg, iv measured upto 8 hrs by LC-MS/MS analysis; assay type: ADME, organism-based; design: time < 8 hrs, dose 1 mg/kg, route iv; details: in vivo
[17] = Cmax in Sprague-Dawley rat at 1 mg/kg, iv measured upto 8 hrs by LC-MS/MS analysis; assay type: ADME, organism-based; design: dose 1 mg/kg, time < 8 hrs, route iv; details: in vivo
[18] = Half life in Sprague-Dawley rat at 1 mg/kg, iv measured upto 8 hrs by LC-MS/MS analysis; assay type: ADME, organism-based; details: in vivo
[19] = Volume of distribution at steady state in Sprague-Dawley rat at 1 mg/kg, iv measured upto 8 hrs by LC-MS/MS analysis; assay type: ADME, organism-based; details: in vivo, read-out: Vdss
[20] = Clearance in Sprague-Dawley rat at 1 mg/kg, iv measured upto 8 hrs by LC-MS/MS analysis; assay type: ADME, organism-based; details: in vivo
[21] = AUC in Sprague-Dawley rat at 3 mg/kg, po measured upto 16 hrs by LC-MS/MS analysis; assay type: ADME, organism-based; design: dose 3 mg/kg, time < 16 hrs, route po; details: in vivo
[22] = Cmax in Sprague-Dawley rat at 3 mg/kg, po measured upto 16 hrs by LC-MS/MS analysis; assay type: ADME, organism-based; design: time < 16 hrs, dose 3 mg/kg, route po; details: in vivo
[23] = Half life in Sprague-Dawley rat at 3 mg/kg, po measured upto 16 hrs by LC-MS/MS analysis; assay type: ADME, organism-based; details: in vivo
[24] = Tmax in Sprague-Dawley rat at 3 mg/kg, po measured upto 16 hrs by LC-MS/MS analysis; assay type: ADME, organism-based; details: in vivo
[25] = Oral bioavailability in Sprague-Dawley rat at 3 mg/kg measured upto 16 hrs by LC-MS/MS analysis; assay type: ADME, organism-based; details: in vivo
[26] = AUC in Beagle dog at 1 mg/kg, iv measured upto 8 hrs by LC-MS/MS analysis; assay type: ADME, organism-based, Canis lupus familiaris; design: time < 8 hrs, dose 1 mg/kg, route iv; details: in vivo
[27] = Cmax in Beagle dog at 1 mg/kg, iv measured upto 8 hrs by LC-MS/MS analysis; assay type: ADME, organism-based, Canis lupus familiaris; design: time < 8 hrs, dose 1 mg/kg, route iv; details: in vivo
[28] = Half life in Beagle dog at 1 mg/kg, iv measured upto 8 hrs by LC-MS/MS analysis; assay type: ADME, organism-based, Canis lupus familiaris; details: in vivo
[29] = Volume of distribution at steady state in Beagle dog at 1 mg/kg, iv measured upto 8 hrs by LC-MS/MS analysis; assay type: ADME, organism-based, Canis lupus familiaris; details: in vivo, read-out: Vdss
[30] = Clearance in Beagle dog at 1 mg/kg, iv measured upto 8 hrs by LC-MS/MS analysis; assay type: ADME, organism-based, Canis lupus familiaris; details: in vivo
[31] = target: T1, Glucagon-like peptide 1 receptor; assay: Agonist activity at human GLP-1R expressed in HEK293 cells assessed as potentiation of GLP-1(7-36) induced cAMP accumulation; assay type: functional, cell-based
[32] = target: T1, Glucagon-like peptide 1 receptor; assay: Partial agonist activity at human GLP-1R expressed in HEK293 cells assessed as potentiation of GLP-1(9-36) induced cAMP accumulation in presence of IBMX; assay type: functional, cell-based
[33] = target: T1, Glucagon-like peptide 1 receptor; assay: Partial agonist activity at human GLP-1R expressed in HEK293 cells assessed as potentiation of GLP-1(9-36) induced cAMP accumulation by measuring maximal efficacy in presence of IBMX relative to GLP-1(9-36); assay type: functional, cell-based
[34] = target: T1, Glucagon-like peptide 1 receptor; assay: Agonist activity at human GLP-1R expressed in HEK293 cells assessed as potentiation of GLP-1(9-36) induced cAMP accumulation by measuring maximal efficacy at 0.12 uM in presence of IBMX relative to GLP-1(9-36); assay type: functional, cell-based; details: filed as agonist
[35] = target: T1, Glucagon-like peptide 1 receptor; assay: Agonist activity at human GLP-1R expressed in HEK293 cells assessed as potentiation of GLP-1(9-36) induced cAMP accumulation in presence of IBMX; assay type: functional, cell-based
[36] = target: T1, Glucagon-like peptide 1 receptor; assay: Agonist activity at human GLP-1R expressed in CHO-K1 cells assessed as fold increase in potentiation of EC50 GLP-1(7-36) induced beta-arrestin recruitment; assay type: functional, cell-based
[37] = target: T1, Glucagon-like peptide 1 receptor; assay: Agonist activity at human GLP-1R expressed in CHO-K1 cells assessed as potentiation of GLP-1(9-36) induced beta-arrestin recruitment by measuring maximal efficacy relative to GLP-1(9-36); assay type: functional, cell-based
[38] = target: T1, Glucagon-like peptide 1 receptor; assay: Agonist activity at human GLP-1R expressed in CHO-K1 cells assessed as potentiation of GLP-1(9-36) induced beta-arrestin recruitment; assay type: functional, cell-based
[39] = target: T1, Glucagon-like peptide 1 receptor; assay: Positive allosteric modulator activity at human GLP-1R transfected in rat INS-1 832/13 cells assessed as fold increase in potentiation of GLP-1(7-36) induced cAMP accumulation at 0.1 uM; assay type: functional, cell-based
[40] = target: T1, Glucagon-like peptide 1 receptor; assay: Positive allosteric modulator activity at human GLP-1R transfected in rat INS-1 832/13 cells assessed as potentiation of GLP-1(9-36) induced cAMP accumulation; assay type: functional, cell-based
[41] = target: T1, Glucagon-like peptide 1 receptor; assay: Positive allosteric modulator activity at human GLP-1R transfected in rat INS-1 832/13 cells assessed as potentiation of GLP-1(9-36) induced cAMP accumulation by measuring maximal efficacy at 3 uM relative to GLP-1(9-36); assay type: functional, cell-based; details: filed as positive allosteric modulator
[42] = target: T1, Glucagon-like peptide 1 receptor; assay: Positive allosteric modulator activity at human GLP-1R transfected in rat INS-1 832/13 cells assessed as increase in GLP-1(9-36) induced insulin levels at 3 uM in presence of high glucose; assay type: cell-based; details: filed as positive allosteric modulator
Mus musculus [43] = assay: Anti-hyperglycemic activity in overnight-fasted GIPR KO C57BL/6 mouse assessed as reduction in blood glucose AUC at 30 mg/kg, po pretreated with compound for 30 mins followed by dextrose addition measured every 15 mins for 60 mins by oral glucose tolerance test relative to control; assay type: functional; design: scale not given: the % may be the effect or the level left; details: time 90 min, 1.5 h
Mus musculus [44] = assay: Anti-hyperglycemic activity in overnight-fasted GIPR KO C57BL/6 mouse assessed as reduction in blood glucose AUC at 10 mg/kg, po pretreated with compound for 30 mins followed by dextrose addition measured every 15 mins for 60 mins in presence of sitagliptin by oral glucose tolerance test relative to control; assay type: functional; design: scale not given: the % may be the effect or the level left; details: time 90 min, 1.5 h
Mus musculus [45] = assay: Anti-hyperglycemic activity in overnight-fasted GIPR KO C57BL/6 mouse assessed as reduction in blood glucose AUC at 30 mg/kg, po pretreated with compound for 30 mins followed by dextrose addition measured every 15 mins for 60 mins in presence of sitagliptin by oral glucose tolerance test relative to control; assay type: functional; design: scale not given: the % may be the effect or the level left; details: time 90 min, 1.5 h

T1 sequence (P43220 whole entry): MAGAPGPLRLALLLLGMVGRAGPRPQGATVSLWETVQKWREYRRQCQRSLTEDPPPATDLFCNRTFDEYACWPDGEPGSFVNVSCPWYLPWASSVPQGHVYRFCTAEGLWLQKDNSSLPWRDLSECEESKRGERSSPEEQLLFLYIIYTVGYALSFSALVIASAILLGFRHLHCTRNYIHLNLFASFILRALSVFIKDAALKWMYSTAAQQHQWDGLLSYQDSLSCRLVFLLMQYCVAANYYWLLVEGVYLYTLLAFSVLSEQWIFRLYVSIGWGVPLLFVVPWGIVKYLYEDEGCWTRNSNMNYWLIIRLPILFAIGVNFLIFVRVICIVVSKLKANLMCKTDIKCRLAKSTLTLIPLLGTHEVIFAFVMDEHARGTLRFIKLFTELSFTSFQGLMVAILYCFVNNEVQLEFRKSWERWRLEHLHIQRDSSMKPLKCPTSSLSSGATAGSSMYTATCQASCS

SMILES: N[C@@H](CC(=O)N1CCn2c(nnc2C(F)(F)F)C1)Cc1cc(F)c(F)cc1F [SITAGLIPTIN]
- Activity (Mus musculus [1]): 18%

SMILES: C[C@H](c1c(Cl)ccc(C2CC2)c1Cl)n1cnc2cnc(-c3ccccc3[C@@H](C)C(=O)O)cc21
- clearance [2]: 9 mL/min/kg
- fold change (FC) [3]: 830
- Emax [4]: 102%
- pEC50 [5]: 6.57
- Emax [6]: 98%
- AUC at 8 h [7]: 3.64 µM·h
- Cmax [8]: 1430 nM
- half-life [9]: 2.1 h
- Vd [10]: 1.6 L/kg
- AUC at 16 h [11]: 7.3 µM·h
- Cmax [12]: 2040 nM
- half-life [13]: 1.6 h
- Tmax [14]: 0.58 h
- bioavailability [15]: 67%
- AUC at 8 h [16]: 0.859 µM·h
- Cmax [17]: 1420 nM
- half-life [18]: 0.6 h
- Vd [19]: 1.6 L/kg
- clearance [20]: 41.9 mL/min/kg
- AUC at 16 h [21]: 1.16 µM·h
- Cmax [22]: 183 nM
- half-life [23]: 2.9 h
- Tmax [24]: 1.8 h
- bioavailability [25]: 45%
- AUC at 8 h [26]: 1.88 µM·h
- Cmax [27]: 6870 nM
- half-life [28]: 0.6 h
- Vd [29]: 0.3 L/kg
- clearance [30]: 18.5 mL/min/kg
- pEC50 [31]: 10.07
- pEC50 [32]: 5.74
- Emax [33]: 13%
- Activity (Mus musculus [1]): 9%
- Emax [34]: 92%
- pEC50 [35]: 8.15
- fold change (FC) [36]: 1.9
- Emax [37]: 10%
- pEC50 [38]: 7.92
- fold change (FC) [39]: 2.7
- pEC50 [40]: 8.15
- Emax [41]: 87%
- Activity [42]: Active
- Activity (Mus musculus [43]): 40%
- Activity (Mus musculus [44]): 29%
- Activity (Mus musculus [45]): 65%

SMILES: COc1ccc(Cl)c([C@@H](C)n2cnc3ccc(-c4ccccc4[C@H]4CCCCN4)cc32)c1Cl
- fold change (FC) [3]: 15000
- Emax [4]: 88%
- pEC50 [5]: 7.62
- Emax [6]: 120%

SMILES: COc1ccc(Cl)c([C@@H](C)n2cnc3ccc(Br)cc32)c1Cl
- fold change (FC) [3]: 250
- Emax [4]: 115%
- pEC50 [5]: 6.10
- Emax [6]: 102%

SMILES: C[C@H](c1c(Cl)ccc(C2CC2)c1Cl)n1cnc2cnc(Br)cc21
- fold change (FC) [3]: 300
- Emax [4]: 110%
- pEC50 [5]: 5.74
- Emax [6]: 113%

SMILES: CC(C(=O)O)c1ccccc1-c1cc2c(cn1)ncn2[C@H](C)c1c(Cl)ccc(C2CC2)c1Cl (some centres not stated)
- fold change (FC) [3]: 7300
- Emax [4]: 103%
- pEC50 [5]: 7.85
- Emax [6]: 104%
